Experimental data from patent US12173350B2, “Chemiluminescent probes for imaging/detection of proteases” (RAMOT AT TEL-AVIV UNIVERSITY LTD., priority 2017, dated 2024).
“Also recorded” adds a separate entry of the source.

Experiments:
cathepsin B [1] = molecular target: T1, cathepsin B (Homo sapiens, UniProt P07858); assay: Chemiluminescence kinetic profile of probes with or without cathepsin B in activity buffer; type: biochemical; details: probe 1 μM, activity buffer pH 7.4, 10% DMSO, 2.5 units/mL cathepsin B, room temperature
Procedure: FIGS. 1A-1C show the chemiluminescence kinetic profiles of probes 1, 2, 3 and 4 [1 μM] in activity buffer (pH 7.4, 10% DMSO) in the presence of 2.5 units/mL cathepsin B at room temperature (1A; the inset focuses on the kinetic profile of probe 1); the total light emitted from each probe (1B); and the maximal signal yielded by each probe (1C).
(§1) The activity buffer contained: phosphate buffer 0.1M, 55 mM NaCl, 1 mM EDTA, 5 mM glutathione. All spectroscopic measurements were conducted in triplicates. The blank measurements for limit of detection calculation were repeated ten times. Limit of detection (LOD) was calculated as such: LOD=Meanblank+3×SD wherein SD—standard deviation.
Next, chemiluminescence emission of the probes, as a function of time was measured, with or without the addition of cathepsin B. The kinetic profiles of the chemiluminescence signals and their relative total-photon emissions are shown in FIGS. 1A and 1B, respectively. […] From then on, a pattern of increased chemiluminescent signal is seen, correlating to the addendum change and the improved probe solubility in aqueous media. Evaluating the probes for forthcoming cell imaging required us to also assess the maximal signal yielded by each probe, as it will culminate in higher sensitivity and resolution (FIG. 1C). The maximal signal of the different probes pales in comparison to that of probe 4, making it the leading choice for further investigation. No light emission was observed from the probes in the absence of cathepsin B.

Raw 264.7 cells = assay: Chemiluminescence microscopy imaging of cathepsin B activity in Raw 264.7 cells; type: cell-based, murine; details: probe 5 μM, LV200 microscope, 20 min exposure
Procedure: (§2) Images were obtained following 30 min incubation with cell culture medium containing either probe 3 or probe 4 (5 μM), and were taken using the LV200 Olympus microscope using a 60× objective and 20 min exposure time. Chemiluminescence microscopy image and transmitted light image of […] cells incubated with probe 3 (a and b, respectively); Chemiluminescence microscopy image and transmitted light image of […] cells incubated with probe 4 (c and d, respectively); Chemiluminescence microscopy image and transmitted light image of CT26 cells incubated with probe 3 (e and f, respectively); Chemiluminescence microscopy image and transmitted light image of CT26 cells incubated with probe 4 (g and h, respectively); Chemiluminescence microscopy image and transmitted light image of 3T3 cells incubated with probe 3 (i and j, respectively); Chemiluminescence microscopy image and transmitted light image of 3T3 cells incubated with probe 4 (k and l, respectively).
(§3) Chemiluminescence images were acquired using Olympus LV200 inverted microscope fitted with an EMCCD camera (Hamamatsu C9100-13). […] For visualization of chemiluminescence emission, images were recorded with 20 minutes exposure times. […]

CT26 tumor cells = assay: Chemiluminescence microscopy imaging of cathepsin B activity in CT26 tumor cells; type: cell-based; details: probe 5 μM, LV200 microscope, 20 min exposure
Procedure: as §2, §3

3T3 normal cells = assay: Chemiluminescence microscopy imaging of cathepsin B activity in 3T3 normal cells; type: cell-based, mouse; details: 3T3 cells, probe 5 μM, LV200 microscope, 20 min exposure
Procedure: as §2, §3

cathepsin B [2] = molecular target: T1, cathepsin B; assay: HPLC analysis of the enzymatic degradation of the probe by cathepsin B; type: biochemical; details: probe 10 μM, activity buffer pH 7.4, 10% DMSO, 2.5 U/mL cathepsin B
Description: To confirm the connection between the enzymatic degradation and chemiluminescent signal of the probes, HPLC was used to follow the enzymatic degradation of probe 4.

cathepsin B [3] = molecular target: T1, cathepsin B; assay: Sensitivity (limit of detection) of probes to detect cathepsin B, signal/noise vs enzyme concentration; type: biochemical; details: for limit of detection (LOD) of cathepsin B: LOD = mean blank + 3×SD
Procedure: as §1
The sensitivity of probe 4 to detect cathepsin B was measured and compared to that of a classic fluorescent probe (Z-Val-Cit-PABA-7HC) based on 7-hydroxy-coumarin To directly view the comparison between the two detection methods, signal/noise ratio using different cathepsin B concentrations was plotted against enzyme concentration using logarithmic scales (FIG. 4).

SMILES | chemiluminescence emission (signal) upon addition of cathepsin B (cathepsin B [1]) | chemiluminescence signal in cell imaging (Raw 264.7 cells) | chemiluminescence signal in cell imaging (CT26 tumor cells) | chemiluminescence signal in cell imaging (3T3 normal cells) | enzymatic degradation followed by HPLC (cathepsin B [2]) | limit of detection (LOD) of cathepsin B (cathepsin B [3]; chemiluminescence) [μU/mL] | superior sensitivity vs. fluorescent probe Z-Val-Cit-PABA-7HC (cathepsin B [3]; ratio of LOD values) | limit of detection (LOD) of cathepsin B (cathepsin B [3]; fluorescence) [U/mL]
COC1(c2cccc(OCc3ccc(NC(=O)C(CCCNC(N)=O)NC(=O)C(NC(=O)OCc4ccccc4)C(C)C)cc3)c2Cl)OOC12C1CC3CC(C1)CC2C3 (centres unmarked) [Probe 1] | extremely weak emission |  |  |  |  |  |  | 
COC(=O)/C=C/c1ccc(C2(OC)OOC23C2CC4CC(C2)CC3C4)c(Cl)c1OCc1ccc(NC(=O)C(CCCNC(N)=O)NC(=O)C(NC(=O)OCc2ccccc2)C(C)C)cc1 (centres unmarked) [Probe 2] | distinct increase in the chemiluminescent signal |  |  |  |  |  |  | 
COCCOCCOCCOCCOCCOCCOCCOCCOCCOCCOCCOCCOCCOCCOCCOCCOCCOC(=O)NC(C(=O)NC(CCCNC(N)=O)C(=O)Nc1ccc(COc2c(/C=C/C(=O)OC)ccc(C3(OC)OOC34C3CC5CC(C3)CC4C5)c2Cl)cc1)C(C)C (centres unmarked) [Probe 3] | distinct increase in the chemiluminescent signal; also recorded: highest light emission | no chemiluminescence signal | no chemiluminescence signal | no chemiluminescence signal |  |  |  | 
COC(=O)/C=C/c1ccc(C2(OC)OOC23C2CC4CC(C2)CC3C4)c(Cl)c1OCc1ccc(NC(=O)C(CCCNC(N)=O)NC(=O)C(NC(=O)CCCCCN2C(=O)CC(SC[C@@H](N)C(=O)NCC(=O)N[C@H](CCCCN)C(=O)N[C@H](CCCNC(=N)N)C(=O)N[C@H](CCCCN)C(=O)O)C2=O)C(C)C)cc1 (some centres unmarked) [Probe 4] | distinct increase in the chemiluminescent signal; also recorded: highest light emission | imaged via the chemiluminescence signal | imaged via the chemiluminescence signal | no chemiluminescence signal was observed | rapid enzymatic disassembly | 76.29 | more than 16,000 fold | 
CC(C)C(NC(=O)OCc1ccccc1)C(=O)NC(CCCNC(N)=O)C(=O)Nc1ccc(COc2ccc3ccc(=O)oc3c2)cc1 (stereo not drawn) [Z-Val-Cit-PABA-7HC, reference compound] |  |  |  |  |  |  |  | 1.25
